Measured values from patent US20240366637A1, “Compounds inhibiting the synergistic carsinogenic effect of heavy metals in the presence of other carcinogens for use in the treatment of cancer” (priority 2021, published 2024).

How the values were obtained:
[1] = tested on: Salmonella typhimurium TA1535; details: cadmium chloride 0.5 mM as pro-mutagen, N-Methyl-N-nitrosourea 180 μM as mutagen, candidate in various concentrations; mutant revertants on solid media
Experimental: The operating hypothesis was tested with an AMES test (as described e.g. by Mandel and Ryser, 1984) based platform using Salmonella typhimurium TA1535 (Standard Ames Tester Strain), cadmium chloride as pro-mutagen (0.5 mM final concentration during treatment), N-Methyl-N-nitrosourea as mutagen (180 μM final concentration during treatment) and EDTA, phytic acid (IP6) and Unithiol (i.e. DMPS) as candidate cadmium-promoted mutagenicity antidotes (in various concentrations, see FIGS. 1 and 2).
The experiment included the following steps: • 1. Healthy growth of bacterial cells • 2. Absorption of cadmium chloride (as a non-genotoxic metabolic poison) under conditions of reduced metabolism (bacteria chilled on ice) • 3. Addition of candidate antidotes and metabolic activation (fresh growth medium, 37° C.) • 4. Addition of N-methyl-N-nitrosourea under metabolically active conditions to fix mutations (fresh growth medium, 37° C.) • 5. Screening for mutant revertants on solid media (standard, second generation Petri dish-based AMES test)

Salmonella typhimurium = details: synergistic with two nitrosoamines; cited from earlier work

O=C(O)CN(CCN(CC(=O)O)CC(=O)O)CC(=O)O [EDTA]
inhibition of mutagenicity-promoting synergy between cadmium and N-methyl-N-nitrosourea [1]: did not inhibit

O=S(=O)(O)CC(S)CS (stereo not shown) [Unithiol, 2,3-Dimercapto-1-propanesulfonic acid]
inhibition of mutagenicity-promoting synergy between cadmium and N-methyl-N-nitrosourea [1]: dose-dependent inhibition

[Cl][Cd][Cl] [cadmium chloride]
increase of the mutagenicity of two common nitrosoamines, greater than expected from simple additivity (Salmonella typhimurium): up to 30 fold

O=P(O)(O)O[C@H]1[C@H](OP(=O)(O)O)[C@@H](OP(=O)(O)O)[C@H](OP(=O)(O)O)[C@@H](OP(=O)(O)O)[C@H]1OP(=O)(O)O [phytic acid]
inhibition of mutagenicity-promoting synergy between cadmium and N-methyl-N-nitrosourea [1]: dose-dependent inhibition
